Assay results taken from patent publication US7144887B2, “Substituted 1,2,3-triazolo[1,5-a]quinazolines for enhancing cognition” (Merck Sharp & Dohme Ltd., priority 1999, dated 2006).

Assays:
[1] = in vivo; cited from earlier work

Row | melting point | Compound | spatial learning in the Morris watermaze [1]
1 | 266 °C (dec.) | Cc1cc(-c2nnn3c2nc(N2CCN(c4ccccn4)C(=O)C2)c2ccccc23)no1 | –
2 | 247 °C (dec.) | Cc1cc(-c2nnn3c2nc(N2CCN(c4cccnc4)C(=O)C2)c2ccccc23)no1 | –
3 | 263 °C (dec.) | Cc1cc(-c2nnn3c2nc(N2CCN(c4ccccc4)C(=O)C2)c2ccccc23)no1 | –
4 | – | COC(=O)c1cc2c(cn1)[nH]c1ccccc12 [β-CCM] | enhanced spatial learning
